According to US8273775B2, “Non-steroidal brassinosteroid mimetic” (priority 2006, dated 2012):

Tested on: gene expression in Col-0 seedling shoots
Test: Microarray analysis (ATH1 Affymetrix) after BL or abrasin treatment
Type: in vivo, Arabidopsis
Conditions: 30 min
Procedure: FIG. 14: Clustering of gene expression profiles by QT-clust analysis. Clusters illustrating the major patterns of the data sets. Points: BIK-30: 30 μM abrasin 30 min; BL-30: 1 μM brassinolide 30 min; DMSO-30: control DMSO 30 min; BIK-120: 30 μM abrasin 120 min; BL-120: 1 μM brassinolide 120 min; DMSO-120: control DMSO 120 min.
Col-0 seeds were germinated vertically on ½ MS medium for 7 days under 16 h light/8 h dark cycles. The seedlings were overlaid with liquid ½ MS medium containing 1 μM brassinolide (BL, Fuji Chemical Industries, Ltd., Toyama, Japan), 30 μM abrasin (BIK, ChemBridge Corporation) and DMSO and treated for 30 and 120 min. The shoot parts were collected for RNA isolation. All sampling points were performed in three independent experiments. RNA was extracted using RNeasy kit (Qiagene). […] total RNA per array was used to hybridise the ATH1 Affymetrix Arabidopsis arrays according to standard procedure. The overrepresentation analyses were performed using BiNGO software (Maere et al., 2005).
We performed a microarray analysis using the Arabidopsis whole genome chip (Affymetix) to determine whether abrasin activated the expression of BR-inducible genes at transcriptional level. Wild-type Col-0 seedlings were exposed to 1 μM BL, 30 μM ABRASIN and DMSO (mock-treatment) for two time points (30 min and 120 min) and the shoot parts were collected for RNA isolation. The analysis of the variance of the normalized gene expression data took in account the variability parameters affecting the expression level: type of hormone treatment, duration of treatment and the interaction between these two.

CC(C)[C@H](C)[C@@H](O)[C@H](O)[C@@H](C)[C@H]1CC[C@H]2[C@@H]3COC(=O)[C@H]4C[C@H](O)[C@H](O)C[C@]4(C)[C@H]3CC[C@]12C [BL, brassinolide, reference compound]
Fold-change AT2G23320 WRKY family transcription factor: 0.86
Fold-change AT2G26530 expressed protein: 0.41
Fold-change AT2G26710 cytochrome p450 family (BAS1): 1.56
Fold-change AT2G28510 Dof-type zinc finger domain-containing protein: 0.94
Fold-change AT2G29340 short-chain dehydrogenase/reductase (SDR) family protein: 0.85
Fold-change AT2G29990 pyridine nucleotide-disulphide oxidoreductase family protein: 0.94
Fold-change AT2G30070 potassium transporter (KUP1): 0.81
Fold-change AT2G31230 encodes a member of the ERF (ethylene response factor): 1.66
Fold-change AT2G34650 protein kinase PINOID (PID): 1.54
Fold-change AT2G36220 expressed protein: 1.18
Fold-change AT2G37590 Dof-type zinc finger domain-containing protein: 0.90
Fold-change AT2G38470 WRKY family transcription factor: 0.38
Fold-change AT2G39710 aspartyl protease family protein: 1.25
Fold-change AT2G40340; AT2G40350 [AT2G40340, encodes a member of the DREB subfamily A-2 of ERF/AP2: 1.16
Fold-change AT2G41250 haloacid dehalogenase-like hydrolase family protein: 0.91
Fold-change AT2G41640 expressed protein: 0.84
Fold-change AT2G42280 basic helix-loop-helix (bHLH) family protein: 0.98
Fold-change AT2G43060 expressed protein, similar to cDNA bHLH transcription factor: 0.25
Fold-change AT2G43280 far-red impaired responsive family protein: 0.84
Fold-change AT2G43290 calmodulin-like protein (MSS3): 1.24
Fold-change AT2G44130 kelch repeat-containing F-box family protein: 1.63
Fold-change AT2G44500 expressed protein: 1.16
Fold-change AT2G45210 auxin-responsive protein-related: 0.77
Fold-change AT2G45680 TCP family transcription factor: 0.91
Fold-change AT2G46225 Encodes a subunit of the WAVE complex: 0.97
Fold-change AT2G47440 DNAJ heat shock N-terminal domain-containing protein: 1.31
Fold-change AT3G04210 disease resistance protein (TIR-NBS class), putative,: 0.89
Fold-change AT3G09920 phosphatidylinositol-4-phosphate 5-kinase family protein: 0.94
Fold-change AT3G12920 expressed protein: 0.81
Fold-change AT3G13040 myb family transcription factor: 0.84
Fold-change AT3G13510 expressed protein: 1.06
Fold-change AT3G13980 expressed protein: 0.71
Fold-change AT3G14370 protein kinase family protein: 2.13
Fold-change AT3G14560 expressed protein: 0.81
Fold-change AT3G16570 rapid alkalinization factor (RALF) family protein: 0.88
Fold-change AT3G17860 expressed protein: 1.08
Fold-change AT3G18830 polyol/cyclitol/monosaccharide-H+-symporte: 1.11
Fold-change AT3G19380 U-box domain-containing protein: 0.70
Fold-change AT3G23030 auxin-responsive protein/indoleacetic acid-induced protein 2 (IAA2): 0.66
Fold-change AT3G23550 MATE efflux family protein: 0.84
Fold-change AT3G25710 basic helix-loop-helix (bHLH) family protein: 1.06
Fold-change AT3G25900 homocysteine S-methyltransferase 1 (HMT-1): 1.17
Fold-change AT3G26910 hydroxyproline-rich glycoprotein family protein: 1.08
Fold-change AT3G30180 cytochrome p450 enzyme: 0.31
Fold-change AT3G46880 expressed protein,: 0.84
Fold-change AT3G47800 aldose 1-epimerase family protein: 1.06
Fold-change AT3G48970 copper-binding family protein: 0.97
Fold-change AT3G49810 U-box domain-containing protein: 0.89
Fold-change AT3G50650 scarecrow-like transcription factor 7 (SCL7): 1.17
Fold-change AT3G50660 steroid 22-alpha-hydroxylase (CYP90B1) (DWF4): 0.47
Fold-change AT3G50750 brassinosteroid signalling positive regulator-related (BEH1): 0.99
Fold-change AT3G52490 heat shock protein-related: 0.93
Fold-change AT3G53810 lectin protein kinase: 0.80
Fold-change AT3G54950 patatin-related,: 0.86
Fold-change AT3G55120 chalcone-flavanone isomerase: 0.98
Fold-change AT3G55150 exocyst subunit EXO70 family protein: 0.75
Fold-change AT3G55840 expressed protein: 1.06
Fold-change AT3G61460 zinc finger (C3HC4-type RING finger) family protein (BRH1): 0.78
Fold-change AT3G63300 expressed protein: 1.02
Fold-change AT4G01680 myb family transcription factor (MYB55): 0.51
Fold-change AT4G02410 lectin protein kinase family protein: 0.66
Fold-change AT4G08040 1-aminocyclopropane-1-carboxylate synthase, putative: 0.13
Fold-change AT4G09460 myb family transcription factor: 1.30
Fold-change AT4G12390 invertase/pectin methylesterase inhibitor family protein: 0.96
Fold-change AT4G12410 auxin-responsive family protein: 1.02
Fold-change AT4G14130 xyloglucan:xyloglucosyl transferase: 0.85
Fold-change AT4G15975 zinc finger (C3HC4-type RING finger) family protein: 1.10
Fold-change AT4G16146 expressed protein: 0.82
